Test results taken from patent US7217557B1, “Three-dimensional structure of polyketide synthases” (The Salk Institute for Biological Studies, priority 1999, dated 2007).
“Also recorded” adds a separate entry of the source.

Tests used:
[1] = TLC-based radiometric assay of product formation by 2-PS, CHS and CHS mutants; type: biochemical; settings: for polyketide product formed: TLC, triple mutant and 2-PS confirmed by LC/MS; for starter molecule accepted: p-coumaroyl-CoA or acetyl-CoA as starter
Source text: Comparison of the initiation/elongation cavities of 2-PS and CHS reveal four amino acid differences. In 2-PS, Leu202, Met259, Leu261, and Ile343 replace Thr197, Ile254, Gly256, and Ser338, respectively, of CHS. These four substitutions reduce cavity volume from 923 Å^3 in CHS to 274 Å^3 in 2-PS. A model of methylpyrone in the 2-PS cavity, based on the position of acetoacetyl-CoA, emphasizes the volume change compared to the CHS-naringenin complex (Accession No. 1CGK). Leu202 and Ile343 occlude the portion of the 2-PS cavity corresponding to the coumaroyl-binding site of CHS. Replacement of Gly256 in CHS by Leu261 in 2-PS severely reduces the size of the active site cavity. Substitution of Met259 in 2-PS for Ile254 in CHS produces a modest alteration in cavity volume. To examine the functional importance of these amino acid differences, the initiation/elongation cavity of CHS was altered by mutagenesis to resemble that of 2-PS. The resulting mutant proteins were screened for activity using either p-coumaroyl-CoA or acetyl-CoA as starter molecules. Activities of 2-PS, CHS, and the CHS mutants were determined by monitoring product formation using a TLC-based radiometric assay. Assay conditions were 100 mM Hepes (pH 7.0), 30 μM starter-CoA (either p-coumaroyl-CoA or acetyl-CoA), and 60 μM [^14C]-malonyl-CoA (50,000 cpm) in 100 μl at 25° C. Reactions were quenched with 5% acetic acid, extracted with ethyl acetate, and applied to TLC plates and developed. Due to the spontaneous cyclization of chalcone into the flavanone naringenin, activities of CHS are referenced to naringenin formation.
The x-ray crystal structures of 2-PS and CHS imply that the size of the active site cavity limits polyketide length and modulates folding of the polyketide chain. […] Since the T197L, G256L, and S338I mutants altered product formation, a CHS triple mutant was generated. […] LC/MS/MS analysis was performed by the Mass Spectroscopy facility of the Scripps Research Institute. Scaled-up assays (2 ml reaction volume) with the CHS T197L/G256L/S338I mutant and 2-PS were performed. Extracts were analyzed on a Hewlett-Packard HP1100 MSD single quadrupole mass spectrometer coupled to a ZorbaxSB-C18 column (5 μm, 2.1 mm×150 mm). HPLC conditions were as follows: gradient system from 0 to 100% methanol in water (each containing 0.2% acetic acid) within 10 min; flow rate 0.25 ml min^−1. LC/MS/MS data from both reactions were identical: 6-methyl-4-hydroxy-2pyrone, Rt=5.068 min; [M-H]^−125 (41); [M-H—CO2]^−[…] (100). The numbers show m/z values with relative intensities in parenthesis. The observed fragmentation matches previously published data.

CHS = settings: covalently modifies Cys164; Lanz et al. 1991; cited from earlier work
[2] = Functional assay of malonyl-CoA decarboxylation by the C164S mutant; type: biochemical; settings: determined crystallographically and confirmed by a functional assay
Source text: Asn336 appears to play a crucial role in the decarboxylation reaction. […] In the hexanoyl-CoA complex, the side chain amide of Asn336 provides a hydrogen bond to the carbonyl oxygen of the thioester. This interaction would stabilize the enolate anion resulting from decarboxylation of malonyl-CoA (see FIG. 6). At the same time, the lack of formal positive charge at Asn336 may preserve the partial carbanion character of this resonance-stabilized anion, and thus the nucleophilicity of the carbanion form.

[3] = 30 μM starter-CoA, 60 μM [14C]-malonyl-CoA, pH 7.0, 25° C.

Q: For “T197L/G256L/S338I: CHS triple mutant with active site sterically analogous to 2-pyrone synthase”, which polyketide product formed [1] is on record?
A: produces only methylpyrone

Q: What about the starter molecule accepted [1] of the same molecule?
A: only accepts acetyl-CoA (or malonyl-CoA)

Q: Which results are given for G256L: CHS mutant G256L of SEQ ID NO:1?
A: preference for acetyl-CoA over coumaroyl-CoA as starter molecule [1, 3]: 3 fold; polyketide product formed [1]: do not form chalcone

Q: Which “preference for p-coumaroyl-CoA versus acetyl-CoA as starter molecule” value [1, 3] does the source give for S338I: CHS mutant S338I of SEQ ID NO:1 here?
A: 3 fold

Q: And the polyketide product formed [1]?
A: do not form chalcone; also recorded: form a distinct product

Q: With “2-PS: 2-Pyrone synthase from Gerbera hybrida, expressed in E. coli” as the molecule, how does the polyketide product formed [1] read?
A: produces the triketide methylpyrone

Q: What about the starter molecule accepted [1] of the same molecule?
A: accepts acetyl-CoA but does not use p-coumaroyl-CoA

Q: With C/C=C/C/C=C/CCC(=O)[C@H]1O[C@H]1C(N)=O [Cerulenin] as the molecule, how does the “inhibition of CHS” value (CHS) read?
A: potent irreversible inhibitor

Q: With T197L: CHS mutant T197L of SEQ ID NO:1 as the molecule, how does the “preference for p-coumaroyl-CoA versus acetyl-CoA as starter molecule” value [1, 3] read?
A: 10 fold

Q: And the polyketide product formed [1]?
A: do not form chalcone; also recorded: form a distinct product

Q: For “CHS I254M: CHS mutant I254M of SEQ ID NO:1”, which “specific activity compared with wild-type enzyme” value [1] is on record?
A: functionally comparable to wild-type enzyme with a modest reduction in specific activity

Q: And the polyketide product formed [1]?
A: yields chalcone

B1: C164S: CHS mutant C164S of SEQ ID NO:1 (protein, UniProt P30074 1-389, looked up, variant C164S)
Chalcone synthase 2: MVSVSEIRKAQRAEGPATILAIGTANPANCVEQSTYPDFYFKITNSEHKTELKEKFQRMCDKSMIKRRYMYLTEEILKENPNVCEYMAPSLDARQDMVVVEVPRLGKEAAVKAIKEWGQPKSKITHLIVCTTSGVDMPGADYQLTKLLGLRPYVKRYMMYQQGSFAGGTVLRLAKDLAENNKGARVLVVCSEVTAVTFRGPSDTHLDSLVGQALFGDGAAALIVGSDPVPEIEKPIFEMVWTAQTIAPDSEGAIDGHLREAGLTFHLLKDVPGIVSKNITKALVEAFEPLGISDYNSIFWIAHPGGPAILDQVEQKLALKPEKMNATREVLSEYGNMSSACVLFILDEMRKKSTQNGLKTTGEGLEWGVLFGFGPGLTIETVVLRSVAI
Q: Which “decarboxylation of malonyl-CoA / residual catalytic activity” value [2] does the source give for B1 here?
A: retains limited catalytic activity; also recorded: produces acetyl-CoA
